Structures are written as SMILES.

One compound from patent publication US10632324B2, “Method for the treatment of skin tissues” (9127-4910 Quebec Inc., priority 2017, dated 2020) can be followed below.

The subject of one series is cystic acne. Put plainly: Split face/back pre-PDT radiant IR study, 10 cystic acne patients (Example 8). In kind it is in vivo, human. Conditions: for decrease in the number of cystic lesions: one month after PDT. Here is the method:
In summary, ten patients were enrolled in a split face or split back (pre-treated side versus control) study with a pre-approved IRB protocol. […] Lesion count was assessed both manually and by digital photography before and 4 weeks after one PDT procedure. Prior to the application of 5-ALA, one side of the face or back was pre-treated with radiant IR [CW LEDs emitting @λ 970 nm, irradiance 50 mW/cm2 for 15 minutes, total fluence 45 J/cm2], while the other half was used as control. PDT was then performed on the entire surface (face or back) using 5-ALA in a conventional manner.
Patients were assigned to a split face or split back group. One side was pre-treated for 15 minutes with radiant IR [CW LEDs emitting @λ 970 nm, irradiance 50 mW/cm^2, total fluence 45 J/cm^2] to obtain a temperature of about 42 Celsius, while the other side was used as control. ALA was then applied after which PDT was performed on the entire face or back surface. Lesion count was assessed manually and by digital photography, before and 4 weeks after the PDT procedure. Exclusion criteria were: current use of the following medications: (Prednisone), anticoagulant therapy, drugs known to cause photo-sensitivity reactions. In addition, during 12 months preceding the study, subjects are required not to take Accutane (isotretinoin); use of corticosteroids on the treated area within 2 weeks of first treatment; use of topical tretinoin (like Retisol-A, Retin-A, Vitamin A acid, Retin-A micro) for at least 1 month prior to enrollment; yanned skin around or on the area to be treated: the back. previous laser of medicated treatment at the treatment site (to be studied) and for the duration of the study; presence of any known diseases among vitiligo, psoriasis, severe eczema, poor skin healing. active infection, immunosuppression, coagulation problem, peripheral arterial disease, hematologic abnormalities, vasculitis, and previous history of epilepsy; pregnancy; alcohol or drug abuse before and during the study.
After the pre-treatment with IR radiation, 5-ALA was applied onto slightly abraded skin and left to incubate for 60 minutes on both IR-pre-treated and control sides. Then, the 5-ALA treated regions were irradiated with a LED source of red light (wavelength of […], in accordance to standard therapy, until a mild to moderate erythema appeared. Immediately afterwards, the 5-ALA treated regions were irradiated with a LED source of blue light (wavelength of 405 nm, power density 30 mW/cm^2) in continuous wave mode for 3 min.

For series [1], the system named is actinic keratosis lesions. Kind of series: Split-face radiant IR skin preparation prior to PDT, actinic keratosis of face and scalp (Example 5). Particulars: single PDT treatment.
Series [2] relates to facial papulo-pustular inflammatory acne lesions. Put plainly: Split-face radiant IR skin preparation prior to PDT, inflammatory acne of the face (Example 6). The format is in vivo, human. As for the experimental part: A person was treated for facial papulo-pustular inflammatory acne lesions. After performing an acetone scrub on the treatment area, a radiant IR skin preparation was done on the right side of their face (970 nm, 80 mW/cm2, for 30 min). Then 5-aminolevulinic acid (Levulan™ Kerastick™) was applied to the skin and left for 90 min incubation time. […] Radiant IR skin preparation allows for a reduction in the number of PDT treatments necessary for significant clinical improvements.

Series [3] has as its system diffuse sebaceous gland hyperplasia. Kind of series: Split-face radiant IR skin preparation prior to PDT, diffuse sebaceous gland hyperplasia (Example 4). The format is in vivo, human. As for the experimental part:
A PDT treatment was performed on the face of a patient suffering from diffuse sebaceous gland hyperplasia. They were complaining of redness exacerbated by exercise/effort. […] Facial lesions were distributed mainly on the forehead and cheeks. […] They applied only topical Metrogel. […] Also, comedones and papulo-pustules were present. The patient was skin phototype II (Fitzpatrick classification). Their parent had similar skin condition.
Prior to PDT, radiant IR skin preparation was performed in only half of face (split face study). Then PDT was completed on the complete facial area. First, the face was washed with a mild soap and an acetone scrub was performed. A 970 nm LED source prototype emitting at 50 mW/cm2 in a CW mode was placed at 1.5 cm from the right side of face and left for 25 min. Right after split face irradiation, 5-aminolevilinic acid (Levulan™ Kerastick™) was applied to the treatment area and left for 90 min. The photosensitizer was then light activated by a 630 nm LED source emitting at 50 mW/cm^2 (LumiPhase-RB, Opusmed, Canada), until erythema was reached (20 min). This treatment was concluded by a 405 nm LED source emitting at 30 mW/cm^2 (LumiPhase-RB, Opusmed, Canada), for 5 min. […] Through a mechanism involving the opening of skin pores, IR radiant skin preparation enhanced drug penetration and absorption by the targeted structures (i.e. sebaceous glands).

Consider `NCC(=O)CCC(=O)O` [5-ALA, 5-aminolevulinic acid], for which the “decrease in the number of cystic lesions” value in the series with cystic acne (IR pre-treated side (970 nm, 50 mW/cm2, 15 min)) stood at 72.5%; in the series with cystic acne (control side (no IR)) it was 47.1%. The “mean+/-standard error number of lesions after treatment” value was 12.0+/−2.3 with cystic acne (IR treated site, baseline 49.7+/-13.7) and 16.3+/−3 in the series with cystic acne (control side, baseline 35.9+/-8.3). In addition, the treatment-related adverse effects result with cystic acne (both sides) was “No treatment-related adverse effects were reported”. The lesion clearance is recorded as 40% in series [1] (left side, no IR pre-treatment) and 60% in series [1] (right side, IR pre-treated (970 nm, 40 mW/cm2, 30 min), 90 min incubation). In addition, in series [2] (IR treated side (970 nm, 80 mW/cm2, 30 min), 90 min incubation, one treatment), the lesion number reduction was 60-70%. For the same compound, the “clinical outcome of side without IR” value in series [2] (untreated (no IR) side, PDT alone) is reported as “needed an additional PDT session to achieve similar results”. In addition, the “time clearing was maintained post-treatment” value in series [3] (especially on the radiant IR pre-treated side) is on record as “up to 6 months”. The “improvement of SH lesions” value in series [3] (other side, no IR preparation, PDT alone, single treatment) is listed as 30%.
